These results are taken from paper PMC10121968, “Fosgonimeton, a Novel Positive Modulator of the HGF/MET System, Promotes Neurotrophic and Procognitive Effects in Models of Dementia” (Neurotherapeutics, 2022).

Common to all, as to format: cell-based
Data set [1] concerns the target T1, MET receptor (Homo sapiens, UniProt P08581).
T1 construct: pMET enzyme-linked immunosorbent assay (ELISA) of human embryonic kidney (HEK293) cell lysates; endogenous in cells; host or cells: HEK293 (ATCC CRL-1573)
As to the kind of experiment: Phosphorylated MET receptor (pMET) ELISA in HEK293 cell lysates. The conditions noted are these: HEK293 cells, 1 ng/mL HGF, 0.001–100 nM, 15 min. The protocol: Human embryonic kidney (HEK293, ATCC CRL-1573) cells were grown at 37 °C, 5% CO2 in Dulbecco's Modified Eagle Medium (DMEM) + 10% fetal bovine serum (FBS) in T-75 flasks until approximately 90% confluent and then seeded in polystyrene-treated 6-well plates for at least 8 h in serum-free growth media. Recombinant HGF protein (R&D Systems, Minneapolis, Minnesota) with or without experimental small-molecule treatment cocktails (Jubilant Biosys, Uttar Pradesh, India) were prepared in DMEM + 0.1% FBS and added to wells in triplicate for 15 min. Cells were lysed with 180 μL ice-cold RIPA buffer including a phosphatase inhibitor (PhosphataseArrest, G-Biosciences, St. Louis, Missouri) on ice for 15 min and then cleared by centrifugation at 16,000 g. Bicinchoninic acid (BCA) assays of lysates were used to normalize protein concentration across samples. Phosphorylated MET receptor (pMET) enzyme-linked immunosorbent assay (ELISA) kit processing was carried out according to the manufacturer’s instructions (Phospho-MET [Tyr1234/1235] Sandwich ELISA Kit, CST #7227C, Cell Signaling Technology, Danvers, Massachusetts). Raw absorbance signals were scaled between subthreshold (1 ng/mL HGF) and saturating (10 ng/mL HGF) controls such that HGF 1 ng/mL = 1 and HGF 10 ng/mL = 10. The statistical difference from subthreshold control was determined by Student’s t-test. […]
On the technique in general: ELISA stands for enzyme-linked immunosorbent assay.

In data set [2] the test system is primary rat hippocampal neurons. As to the kind of experiment: Neurite outgrowth assay (beta-III tubulin staining). As to conditions: 4 days, vs vehicle. The protocol:
On day 0, rat hippocampal neurons from newborn pups were isolated and cultured in brain neuronal culture medium (neurobasal medium supplemented with 5% FBS, 2% B-27 supplement, and 0.003% gentamycin) at 37 °C under 5% CO2. At 1 day in vitro (DIV1), cells were transferred to a poly-D-lysine–coated 24-well plate at approximately 10,000 cells/well. Cells were then grown in […] of serum-free medium and treated with the following: 0.1% dimethyl sulfoxide (DMSO; vehicle), 10 nM dihydrotestosterone (positive control), 10 nM fosgo-AM, 1 nM fosgo-AM, 5 ng/ml HGF, or 5 ng/ml HGF + 1 nM fosgo-AM. All treatments contained a final concentration of 0.1% DMSO. For the neurite outgrowth assay, treatment media were refreshed on DIV3, and cells were processed for analysis on DIV4. For the synaptogenesis assay, treatment media were refreshed on DIV3 and DIV6, and cells were processed for analysis on DIV8. Processing for both the neurite outgrowth and the synaptogenesis assays was performed as follows: media were removed, and cells were fixed with 100% methanol for 20 min at RT before methanol was aspirated and each well was washed twice with Dulbecco’s phosphate-buffered saline (DPBS). Cells were permeabilized using 0.02% […] (ThermoFisher, Waltham, Massachusetts) in DPBS for 2 min at RT without shaking, and plates were blocked with 5% bovine serum albumin (BSA) in DPBS for 1 h at RT. Plates were then incubated overnight at 4 °C with gentle shaking with use of beta-III tubulin antibody (ab201740; Abcam, Boston, Massachusetts) to assess neurite outgrowth or with use of 1:500 rabbit anti–synaptobrevin-II antibody (Synaptic Systems, cat# 104 202, Göttingen, Germany) to assess synaptogenesis. After overnight incubation, plates were washed 3 times with DPBS and incubated for 1 h at RT with use of anti–rabbit immunoglobulin G–secondary antibody conjugated to Alexa Fluor 488 (Life Technologies, Carlsbad, California, 1:500). After 5 DPBS washes, coverslips were mounted on slides using fluorescent mounting medium (Golden Bridge International Labs, Bothell, Washington, cat# E19-s). Imaging was performed using the BX43 Olympus microscope driven by the standard “CellSens” software by Olympus. […] Ten images of single cells from a total of 2 assays were analyzed using NeuroJ plug-in for ImageJ to assess neurite outgrowth, as neurite length and the number of branches per neuron were counted for each cell. For the synaptogenesis assay, synaptic count (number of synapses) and synaptic strength (relative abundance of presynaptic vesicles per synapse as measured by synaptobrevin-II fluorescence intensity) were quantified for each cell. Data were assessed for normality (Shapiro–Wilk) and homoscedasticity (Brown-Forsythe). […]

The test system of data set [3] is primary rat cortical neurons. Nature of the data set: Neuroprotection, Cell Titer-Glo cell viability assay. The conditions noted are these: for percentage of recovery of cell viability: 1 µM, 24 h. The protocol: A Cell Titer-Glo (CTG) Luminescent Cell Viability Assay (Promega, Cat #G7571, Madison, Wisconsin) was used to assess the neuroprotective potential of fosgo-AM. Brain cortices were dissected from P1–3 rat pups and homogenized in DMEM containing 10% FBS. The resulting suspension was then incubated with a DNase/papain/trypsin solution for 30 min at 37 °C, followed by incubation in a collagenase solution for 1 h. Cells were then seeded at 5000 cells/well in 384-well plates and maintained at 37 °C and 5% CO2 in Complete Neurobasal Medium supplemented with B27/GDNF/BDNF containing 10% FBS. One day later, cultures were switched to serum-free neurobasal medium supplemented with 2% B27 and maintained until neuronal maturity (35–40 DIV). Media were changed every 3 days, and fresh medium was applied 24 h before each experiment. Cells were then treated with fosgo-AM at 1 µM, 100 nM, 10 nM, or 1 nM in a 0.5% DMSO vehicle for 15 min, and subjected to several conditional insults, including 1-methyl-4-phenylpryidinium (MPP+; 500 µM), glutamate (25 µM), lipopolysaccharide (LPS; 1 µM), or hydrogen peroxide (H2O2; 1 µM) for 24 h. After 24 h, 25 µL CTG reagent was added to each well and the plate was incubated with shaking for 15 min. Luminescence measurements to assess relative levels of ATP were performed on an Envision plate reader (PerkinElmer, Waltham, Massachusetts). Data for the vehicle control were set to 100% cell viability, and data for each other group were averaged, normalized to vehicle control, and presented as mean ± SEM. Data were assessed for normality (Shapiro–Wilk) and homoscedasticity (Brown-Forsythe). Statistical analyses were performed using one-way ANOVA with Tukey’s Multiple Comparison test (Prism GraphPad, San Diego, California). A value of p < 0.05 was considered to represent a statistically significant difference.
For orientation: In ATP-based viability assays light output follows the ATP content of the culture.

Each structure is given as a SMILES string. Non-standard residues stand in square brackets, D forms with d. Residues, ends and D or L forms follow the SMILES beside them. *: point of attachment. Hexanoyl = CCCCCC(=O)*; Ahx = NCCCCCC(=O)O

T1 sequence (P08581 308-1390 limits assumed): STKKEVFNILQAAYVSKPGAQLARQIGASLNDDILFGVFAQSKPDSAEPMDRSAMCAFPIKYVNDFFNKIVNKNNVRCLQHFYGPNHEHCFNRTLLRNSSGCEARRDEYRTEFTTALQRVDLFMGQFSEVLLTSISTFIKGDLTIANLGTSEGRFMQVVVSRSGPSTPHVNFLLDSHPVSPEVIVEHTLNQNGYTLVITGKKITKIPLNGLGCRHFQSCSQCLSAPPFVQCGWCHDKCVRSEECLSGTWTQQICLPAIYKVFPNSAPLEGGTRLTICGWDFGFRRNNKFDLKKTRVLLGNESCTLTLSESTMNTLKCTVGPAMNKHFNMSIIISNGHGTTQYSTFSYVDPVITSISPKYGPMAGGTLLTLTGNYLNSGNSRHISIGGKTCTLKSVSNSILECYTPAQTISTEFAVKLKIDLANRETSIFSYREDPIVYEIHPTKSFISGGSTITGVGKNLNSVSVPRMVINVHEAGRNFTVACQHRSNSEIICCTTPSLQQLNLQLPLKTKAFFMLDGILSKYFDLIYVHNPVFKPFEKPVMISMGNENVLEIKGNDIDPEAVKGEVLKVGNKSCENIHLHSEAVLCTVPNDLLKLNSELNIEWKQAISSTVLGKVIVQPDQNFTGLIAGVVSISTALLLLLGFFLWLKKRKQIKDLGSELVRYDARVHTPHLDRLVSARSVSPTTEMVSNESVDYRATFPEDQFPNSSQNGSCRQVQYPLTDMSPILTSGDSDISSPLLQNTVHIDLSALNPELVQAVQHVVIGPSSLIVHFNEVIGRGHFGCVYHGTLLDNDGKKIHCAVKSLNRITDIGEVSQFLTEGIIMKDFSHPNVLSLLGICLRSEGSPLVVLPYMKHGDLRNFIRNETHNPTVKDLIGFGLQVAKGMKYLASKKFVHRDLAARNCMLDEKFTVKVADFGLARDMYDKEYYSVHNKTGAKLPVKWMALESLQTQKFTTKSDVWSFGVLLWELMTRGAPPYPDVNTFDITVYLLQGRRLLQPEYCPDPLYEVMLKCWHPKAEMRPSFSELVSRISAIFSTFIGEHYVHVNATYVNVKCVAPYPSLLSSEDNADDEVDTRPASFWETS
T1 sequence (P08581 25-307 limits assumed): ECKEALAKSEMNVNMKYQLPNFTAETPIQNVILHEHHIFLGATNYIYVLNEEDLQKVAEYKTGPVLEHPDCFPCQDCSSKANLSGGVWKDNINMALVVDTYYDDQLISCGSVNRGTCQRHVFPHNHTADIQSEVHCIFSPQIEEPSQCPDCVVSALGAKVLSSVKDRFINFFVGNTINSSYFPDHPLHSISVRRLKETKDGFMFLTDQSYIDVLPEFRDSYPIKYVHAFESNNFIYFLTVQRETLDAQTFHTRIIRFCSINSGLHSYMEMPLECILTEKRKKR

As for `CCCCCC(=O)N[C@@H](Cc1ccc(O)cc1)C(=O)N[C@H](C(=O)NCCCCCC(N)=O)[C@@H](C)CC` [fosgo-AM] (Hexanoyl-Tyr-Ile-[Ahx]-NH2), the “enhancement of pMET levels in the presence of low HGF” value in data set [1] was “most potent positive modulator of HGF/MET”. The “neurite length per cell” value in data set [2] (1 nM fosgo-AM + 5 ng/mL HGF) was “significantly increased neurite length per cell”; in data set [2] (10 nM), “significant increase in neurite length per cell”. Moreover, the “number of neurite branches” value in data set [2] (HGF ± fosgo-AM) is on record as “did not reach statistical significance”. Also, the “percentage of recovery of cell viability” value turned out to be 144% in data set [3] (versus H2O2 (1 µM)), 93% in data set [3] (versus LPS (1 µM)), 85% in data set [3] (versus MPP+ (500 µM)) and 61% in data set [3] (versus glutamate (25 µM)). The cell viability entry in data set [3] (all tested concentrations (1 nM–1 µM), against all insults (MPP+, glutamate, LPS, H2O2)) is listed as “Significant improvement in cell viability”.
